Experiment: Solubility of the drug in levulinic acid at 35° C. (visual observation)
Assay type: physicochemical
Details: in 1 mL of levulinic acid at a liquid temperature of 35° C.
Method: The adhesive layer includes a drug. A drug that can be dissolved in levulinic acid is preferable. For example, it is preferable that 0.1 g or more of the drug can be dissolved in 1 mL of levulinic acid at a liquid temperature of 35° C.
Specifically, the solubility of the drug is determined as follows. One mL of levulinic acid is put into a test tube and kept at 35° C. to obtain liquid levulinic acid. To the liquid levulinic acid, 0.1 g of the drug is added to obtain a mixed liquid. While keeping the mixed liquid at 35° C., the mixed liquid in the test tube is vibrated for 10 minutes using an ultrasonic cleaner (e.g., a glasses cleaner). After removing the test tube from the ultrasonic cleaner and leaving it in an environment of 35° C. for 4 hours, the mixed liquid in the test tube is visually observed to check for the presence of residues or precipitates of the drug. In a case where no drug residues or precipitates are observed in the mixed liquid, it is determined that 0.1 g or more of the drug can be dissolved in 1 mL of levulinic acid at a liquid temperature of 35° C. Furthermore, in a case where drug residues or precipitates are observed in the mixed liquid, it is determined that 0.1 g or more of the drug cannot be dissolved in 1 mL of levulinic acid at a liquid temperature of 35° C.

Row | Structure (SMILES) | Amount of drug that can be dissolved in 1 mL of levulinic acid [g]
1 | CCCN(CCc1cccs1)[C@H]1CCc2c(O)cccc2C1 [rotigotine] | ≥ 0.1
2 | N=C(N)NC(=O)Cc1c(Cl)cccc1Cl [guanfacine] | ≥ 0.1
3 | CCN1CCN(c2cc(-c3ccc(F)cc3)c3c(n2)CCCCCC3)CC1 [blonanserin] | ≥ 0.1

— patent US20230390214A1, “ADHESIVE PATCH” (TOYO INK SC HOLDINGS CO., LTD., priority 2020, published 2023)
